Reference: article PMC12190736, “Development and In Vitro Characterization of [^3H]GMC-058 as Radioligand for Imaging Parkinsonian-Related Proteinopathies” (Cells, 2025)

Tested on: fresh-frozen human brain sections
Assay: Autoradiography on fresh-frozen brain tissue sections
Type: binding
Settings: for NSB: 5 µM GMC044; for Specific binding relative to displaceable binding in controls: on average
Experimental: Selections of frozen human sections (described in Table 2 and Table 3) were used for binding autoradiography. Sections were first pre-incubated for 20 min in binding buffer [50 mM Tris-HCl (pH 7.4), 120 mM NaCl, 5 mM KCl, 2 mM CaCl2, 1 mM MgCl2, and 0.1% BSA] and then incubated with [^3H]GMC-058 (specific activity 22 Ci/mmol); [^3H]GMC-073 (specific activity 23.4 Ci/mmol); or […] in binding buffer for 180 min at RT. In the pilot autoradiography experiment (Figure A1). [^3H]GMC-058 was tested at 25 and 50 nM, while [^3H]GMC-073 and [^3H]GMC-098 were each tested at 10 and 20 nM. For all other autoradiography in fresh-frozen tissue sections, 25 nM [^3H]GMC-058 was used. To determine NSB, adjacent brain sections were incubated with [^3H]-tracer mixed with 5 μM of unlabeled GMC-044. The binding reaction was stopped with two 10 min washes in washing buffer [50 mM Tris-HCl (pH 7.4) at 4 °C] and a brief dip in cold distilled water. Slides were allowed to air-dry before being placed under storage phosphor screens (Fujifilm Plate BAS-TR2025, Fujifilm, Tokyo, Japan) in imaging cassettes for 90 h together with ART0123C and ART0123B tritium standards on glass slides (American Radiolabeled Chemicals Inc., St. Louis, MO, USA). Storage phosphor screens were scanned using an Amersham Typhoon FLA-9500 phosphor imaging scanner (Cytiva, Marlborough, MA, USA), and the resulting images were analyzed using Multi Gauge 3.2 phosphor imager software (Fujifilm, Tokyo, Japan) for ROI delimitation, density calibration, and quantification. Quantitative binding data from duplicates of the total, and NSB were plotted and analyzed using graphPad Prism v10 (GraphPad Software, Boston, MA, USA). Specific binding was determined by subtracting the non-specific signal from the total signal. The toluidine blue staining of adjacent sections was used to obtain anatomical references for white- and gray-matter ROI selection. Care was taken not to include artifact signals in the ROIs analyzed. These artifacts were identified as randomly placed punctate signals appearing in both total and NSB images, and they often coincided with small folds or tears in the tissue sections.

[1] = 25 nM radioligand, gray matter of cingulate cortex, control C03
[2] = 25 nM, PD1, cingulate gyrus, GM
[3] = 25 nM, PD1, cingulate gyrus, WM
[4] = 25 nM, PD2, cingulate gyrus, GM
[5] = 25 nM, PD2, cingulate gyrus, WM
[6] = 25 nM, PD3, cingulate gyrus, GM
[7] = 25 nM, PD3, cingulate gyrus, WM
[8] = 25 nM, non-dementia control C01, cingulate gyrus, GM
[9] = 25 nM, non-dementia control C01, cingulate gyrus, WM
[10] = 25 nM, non-dementia control C02, cingulate gyrus, GM
[11] = 25 nM, non-dementia control C02, cingulate gyrus, WM
[12] = 25 nM, non-dementia control C03, cingulate gyrus, GM
[13] = 25 nM, non-dementia control C03, cingulate gyrus, WM
[14] = 50 nM radioligand, gray matter of cingulate cortex, control C03

## [3H]c1cc(N2CCN(c3ccc(NC(=O)C(C)(C)C)cc3)CC2)ccc1OC [[^3H]GMC-058, N-(4-(4-(4-methoxy-[3-3H]phenyl)piperazin-1-yl)phenyl)pivalamide]
[1]
  NSB: 37.6 ± 3.8 fmol/mg tissue equivalent
  Total Minus NSB: 20 fmol/mg
  Total binding: 57.6 ± 1.8 fmol/mg tissue equivalent
25 nM, CBD1 block 1, SFG, GM
  Specific Binding: 50 fmol/mg tissue equivalent
25 nM, CBD1 block 1, SFG, WM
  Specific Binding: 29 fmol/mg tissue equivalent
25 nM, CBD1 block 2, SFG, GM
  Specific Binding: 32 fmol/mg tissue equivalent
25 nM, CBD1 block 2, SFG, WM
  Specific Binding: 130 fmol/mg tissue equivalent
25 nM, CBD, gray matter of superior frontal gyrus
  Specific binding relative to displaceable binding in controls: three-fold
25 nM, MSA1, cerebellum, GM
  NSB (5 µM GMC044): 27.4 fmol/mg tissue equivalent
  Total Minus NSB: 19.5 fmol/mg tissue equivalent
  Total binding: 46.9 fmol/mg tissue equivalent
25 nM, MSA1, cerebellum, WM
  NSB (5 µM GMC044): 33.3 fmol/mg tissue equivalent
  Total Minus NSB: 16.8 fmol/mg tissue equivalent
  Total binding: 50.1 fmol/mg tissue equivalent
25 nM, MSA2, cerebellum, GM
  NSB (5 µM GMC044): 19.9 fmol/mg tissue equivalent
  Total Minus NSB: 10.3 fmol/mg tissue equivalent
  Total binding: 30.3 fmol/mg tissue equivalent
25 nM, MSA2, cerebellum, WM
  NSB (5 µM GMC044): 27.7 fmol/mg tissue equivalent
  Total Minus NSB: 24.8 fmol/mg tissue equivalent
  Total binding: 52.5 fmol/mg tissue equivalent
25 nM, MSA3, cerebellum, GM
  Specific Binding: 26 fmol/mg tissue equivalent
25 nM, MSA3, cerebellum, WM
  Specific Binding: 21 fmol/mg tissue equivalent
25 nM, MSA4, cerebellum, GM
  Specific Binding: 23 fmol/mg tissue equivalent
25 nM, MSA4, cerebellum, WM
  Specific Binding: 49 fmol/mg tissue equivalent
25 nM, NDE C03, cingulate cortex, GM
  Specific Binding: 15 fmol/mg tissue equivalent
25 nM, NDE C03, cingulate cortex, WM
  Specific Binding: −2 fmol/mg tissue equivalent
25 nM, NDE C04, caudate, GM
  Specific Binding: 8 fmol/mg tissue equivalent
25 nM, NDE C04, caudate, WM
  Specific Binding: −1 fmol/mg tissue equivalent
25 nM, NDE C04, globus pallidus, GM
  Specific Binding: 10 fmol/mg tissue equivalent
25 nM, NDE C04, globus pallidus, WM
  Specific Binding: 0 fmol/mg tissue equivalent
25 nM, NDE Co4, putamen, GM
  Specific Binding: 12 fmol/mg tissue equivalent
25 nM, NDE Co4, putamen, WM
  Specific Binding: 4 fmol/mg tissue equivalent
[2]
  NSB (5 µM GMC044): 42.3 fmol/mg tissue equivalent
  Total Minus NSB: 13.3 fmol/mg tissue equivalent
  Total binding: 55.6 fmol/mg tissue equivalent
[3]
  NSB (5 µM GMC044): 50.6 fmol/mg tissue equivalent
  Total Minus NSB: 1.9 fmol/mg tissue equivalent
  Total binding: 52.5 fmol/mg tissue equivalent
[4]
  NSB (5 µM GMC044): 17.1 fmol/mg tissue equivalent
  Total Minus NSB: −0.9 fmol/mg tissue equivalent
  Total binding: 16.2 fmol/mg tissue equivalent
[5]
  NSB (5 µM GMC044): 53.7 fmol/mg tissue equivalent
  Total Minus NSB: 1.6 fmol/mg tissue equivalent
  Total binding: 55.4 fmol/mg tissue equivalent
[6]
  NSB (5 µM GMC044): 42.0 fmol/mg tissue equivalent
  Total Minus NSB: 17.2 fmol/mg tissue equivalent
  Total binding: 59.3 fmol/mg tissue equivalent
[7]
  NSB (5 µM GMC044): 47.1 fmol/mg tissue equivalent
  Total Minus NSB: 8.3 fmol/mg tissue equivalent
  Total binding: 55.4 fmol/mg tissue equivalent
25 nM, PSP1, GP, GM
  Specific Binding: 102 fmol/mg tissue equivalent
25 nM, PSP1, GP, WM
  Specific Binding: 32 fmol/mg tissue equivalent
25 nM, PSP2, GP, GM
  Specific Binding: 118 fmol/mg tissue equivalent
25 nM, PSP2, GP, WM
  Specific Binding: −1 fmol/mg tissue equivalent
25 nM, PSP, gray matter of globus pallidus
  Specific binding relative to displaceable binding in controls: ten-fold
25 nM, cingulate cortex of controls and PD patients, cerebellum of MSA patients
  Specific binding versus controls: did not show clear evidence of specific binding higher than the displaceable (off-target) binding in controls
[8]
  NSB (5 µM GMC044): 60.3 fmol/mg tissue equivalent
  Total Minus NSB: −3.5 fmol/mg tissue equivalent
  Total binding: 56.8 fmol/mg tissue equivalent
[9]
  NSB (5 µM GMC044): 59.8 fmol/mg tissue equivalent
  Total Minus NSB: −2.9 fmol/mg tissue equivalent
  Total binding: 56.9 fmol/mg tissue equivalent
[10]
  NSB (5 µM GMC044): 24.6 fmol/mg tissue equivalent
  Total Minus NSB: 19.8 fmol/mg tissue equivalent
  Total binding: 44.3 fmol/mg tissue equivalent
[11]
  NSB (5 µM GMC044): 31.8 fmol/mg tissue equivalent
  Total Minus NSB: 13.6 fmol/mg tissue equivalent
  Total binding: 45.3 fmol/mg tissue equivalent
[12]
  NSB (5 µM GMC044): 28.6 fmol/mg tissue equivalent
  Total Minus NSB: 16.7 fmol/mg tissue equivalent
  Total binding: 45.3 fmol/mg tissue equivalent
[13]
  NSB (5 µM GMC044): 39.0 fmol/mg tissue equivalent
  Total Minus NSB: 9.7 fmol/mg tissue equivalent
  Total binding: 48.7 fmol/mg tissue equivalent
25 nM, two MSA cases, cerebellar gray matter
  Specific binding relative to average displaceable binding in gray matter of controls: two-fold higher
25 nM, white matter of MSA and CBD cases
  Average specific binding: 35 to 80 fmol/mg
25 nM, white matter of control cases
  Specific Binding: No specific binding
[14]
  NSB: 74.6 ± 4.1 fmol/mg tissue equivalent
  Total Minus NSB: 40 fmol/mg
  Total binding: 114.1 ± 9.3 fmol/mg tissue equivalent
5 µM GMC-044, control cingulate cortex tissue
  Binding displaced by GMC-044: ~ 65%
Cingulate cortex of healthy controls
  Binding in control tissue: negligible binding
